# Laboratory results taken from patent US20100267561A1, “HERBICIDAL PYRIDAZINONE DERIVATIVES” (priority 2007, published 2010).
# Columns and labels:
# Type in all cases: in vivo
# [1] = system: windgrass (Apera spica-venti); assay: Test B postemergence plant response; settings: for Windgrass plant response rating: postemergence, 0-100 scale; for Plant response rating, Windgrass: Postemergence
# How it was run: (§1)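 Compounds applied after emergence to 2–18 cm plants; response read visually 13–15 days later on 0 (none) to 100 (complete control); a dash marks no result.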
# [2] = system: chickweed (Stellaria media); assay: Test B postemergence plant response; settings: for Chickweed plant response rating: postemergence, 0-100 scale; for Plant response rating, Chickweed: Postemergence
# How it was run: as §1
# [3] = system: winter barley (Hordeum vulgare); assay: Test B postemergence plant response; settings: for Barley plant response rating: postemergence; for Plant response rating, Barley: Postemergence, scale 0 to 100, 0 no effect, 100 complete control
# How it was run: as §1
# [4] = system: Italian ryegrass (Lolium multiflorum); assay: Test B pre-/postemergence plant response
# How it was run: (§2)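 Preemergence and postemergence (plants 2-18 cm, 1- to 4-leaf stage) applications used test chemicals in a non-phytotoxic solvent with surfactant. Plants were held in a greenhouse 13 to 15 days, then rated visually against controls on a 0-100 scale (0 no effect, 100 complete control).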
# [5] = system: green foxtail (Setaria viridis); assay: Test B pre-/postemergence plant response
# How it was run: as §2
# [6] = system: morningglory (Ipomoea coccinea); assay: Test B pre-/postemergence plant response
# How it was run: as §2
# [7] = system: wheat (Triticum aestivum); assay: Test B pre-/postemergence plant response
# How it was run: as §2
# [8] = system: goosegrass (Eleusine indica); assay: Test B pre-/postemergence plant response
# How it was run: as §2
# [9] = system: bermudagrass (Cynodon dactylon); assay: Test B pre-/postemergence plant response
# How it was run: as §2
# [10] = system: johnsongrass (Sorghum halepense); assay: Test B pre-/postemergence plant response
# How it was run: as §2
# soybean (Glycine max) = assay: Test B pre-/postemergence plant response
# How it was run: as §2
# [11] = system: surinam grass (Brachiaria decumbens); assay: Test B pre-/postemergence plant response
# How it was run: as §2
# [12] = system: large crabgrass (Digitaria sanguinalis); assay: Test B pre-/postemergence plant response
# How it was run: as §2
# [13] = system: cocklebur (Xanthium strumarium); assay: Test B pre-/postemergence plant response
# How it was run: as §2
# [14] = system: eastern black (E.B.) nightshade (Solanum ptycanthum); assay: Test B pre-/postemergence plant response; settings: Preemergence
# How it was run: as §2
# [15] = 62 g ai/ha, scale 0 to 100, 0 no effect, 100 complete control
# [16] = 8 g ai/ha, postemergence, 0-100 scale
# [17] = 16 g ai/ha, postemergence, 0-100 scale
# [18] = Postemergence, 31 g ai/ha, scale 0 to 100
# [19] = Postemergence, 62 g ai/ha, scale 0 to 100, 0 no effect, 100 complete control
# [20] = Preemergence, 8 g ai/ha, scale 0 to 100 (0 no effect, 100 complete control)
# [21] = Preemergence, 31 g ai/ha, scale 0 to 100 (0 no effect, 100 complete control)
# [22] = Preemergence, 62 g ai/ha, 0 to 100 scale, 0 no effect, 100 complete control
# [23] = Preemergence, 16 g ai/ha, scale 0 to 100
structure (smiles),measurement,setting,value
CCc1c(C)c(-c2ccc(Br)cc2)nn1-c1c(O)cnn(C)c1=O [Compound 83],Windgrass plant response rating,[1]; 8 g ai/ha,90
same,Windgrass plant response rating,[1]; 16 g ai/ha,98
same,"Plant response rating, Windgrass","[1]; 31 g ai/ha, scale 0 to 100",100
same,"Plant response rating, Windgrass",[1]; [15],100
same,Chickweed plant response rating,[2]; 8 g ai/ha,0
same,Chickweed plant response rating,[2]; 16 g ai/ha,0
same,"Plant response rating, Chickweed","[2]; 31 g ai/ha, scale 0 to 100",0
same,"Plant response rating, Chickweed",[2]; [15],0
same,Barley plant response rating,"[3]; 8 g ai/ha, 0-100 scale",0
same,Barley plant response rating,"[3]; 16 g ai/ha, 0-100 scale (0 no effect, 100 complete control)",0
same,"Plant response rating, Barley",[3]; 31 g ai/ha,45
same,"Plant response rating, Barley",[3]; 62 g ai/ha,45
same,"Ryegrass, Italian plant response rating",[4]; [16],85
same,"Ryegrass, Italian plant response rating",[4]; [17],98
same,"Plant response rating, Ryegrass, Italian",[4]; [18],100
same,"Plant response rating, Ryegrass, Italian",[4]; [19],100
same,"Ryegrass, Italian plant response rating",[4]; [20],30
same,"Plant response rating, Ryegrass, Italian",[4]; [21],100
same,"Plant response rating, Ryegrass, Italian",[4]; [22],100
same,"Ryegrass, Italian plant response rating",[4]; [23],85
same,"Foxtail, Green plant response rating",[5]; [16],60
same,"Foxtail, Green plant response rating",[5]; [17],65
same,"Plant response rating, Foxtail, Green",[5]; [18],98
same,"Plant response rating, Foxtail, Green",[5]; [19],100
same,"Foxtail, Green plant response rating",[5]; [20],40
same,"Plant response rating, Foxtail, Green",[5]; [21],80
same,"Plant response rating, Foxtail, Green",[5]; [22],100
same,"Foxtail, Green plant response rating",[5]; [23],70
same,Morningglory plant response rating,[6]; [16],0
same,Morningglory plant response rating,[6]; [17],0
same,"Plant response rating, Morningglory",[6]; [18],0
same,"Plant response rating, Morningglory",[6]; [19],0
same,Morningglory plant response rating,[6]; [20],0
same,"Plant response rating, Morningglory",[6]; [21],0
same,"Plant response rating, Morningglory",[6]; [22],0
same,Morningglory plant response rating,[6]; [23],0
same,Wheat plant response rating,[7]; [16],40
same,Wheat plant response rating,[7]; [17],55
same,"Plant response rating, Wheat",[7]; [18],90
same,"Plant response rating, Wheat",[7]; [19],95
same,Wheat plant response rating,[7]; [20],0
same,"Plant response rating, Wheat",[7]; [21],0
same,"Plant response rating, Wheat",[7]; [22],20
same,Wheat plant response rating,[7]; [23],0
same,Goosegrass plant response rating,[8]; [16],0
same,Goosegrass plant response rating,[8]; [17],45
same,"Plant response rating, Goosegrass",[8]; [18],55
same,"Plant response rating, Goosegrass",[8]; [19],60
same,Goosegrass plant response rating,[8]; [20],55
same,"Plant response rating, Goosegrass",[8]; [21],95
same,"Plant response rating, Goosegrass",[8]; [22],100
same,Goosegrass plant response rating,[8]; [23],80
same,Bermudagrass plant response rating,[9]; [16],40
same,Bermudagrass plant response rating,[9]; [17],65
same,"Plant response rating, Bermudagrass",[9]; [18],85
same,"Plant response rating, Bermudagrass",[9]; [19],90
same,Bermudagrass plant response rating,[9]; [20],55
same,Bermudagrass plant response rating,"[9]; Preemergence, 16 g ai/ha, scale 0 to 100 (0 no effect, 100 complete control)",65
same,"Plant response rating, Bermudagrass",[9]; [21],100
same,"Plant response rating, Bermudagrass",[9]; [22],100
same,Johnsongrass plant response rating,[10]; [16],65
same,Johnsongrass plant response rating,[10]; [17],70
same,"Plant response rating, Johnsongrass",[10]; [18],98
same,"Plant response rating, Johnsongrass",[10]; [19],100
same,Johnsongrass plant response rating,[10]; [20],55
same,"Plant response rating, Johnsongrass",[10]; [21],95
same,"Plant response rating, Johnsongrass",[10]; [22],98
same,Johnsongrass plant response rating,[10]; [23],85
same,Soybean plant response rating,soybean (Glycine max); [16],0
same,Soybean plant response rating,soybean (Glycine max); [17],0
same,"Plant response rating, Soybean",soybean (Glycine max); [18],0
same,"Plant response rating, Soybean",soybean (Glycine max); [19],0
same,Soybean plant response rating,soybean (Glycine max); [20],0
same,"Plant response rating, Soybean",soybean (Glycine max); [21],0
same,"Plant response rating, Soybean",soybean (Glycine max); [22],0
same,Soybean plant response rating,soybean (Glycine max); [23],0
same,Surinam Grass plant response rating,[11]; [16],85
same,Surinam Grass plant response rating,[11]; [17],100
same,"Plant response rating, Surinam Grass",[11]; [18],100
same,"Plant response rating, Surinam Grass",[11]; [19],100
same,Surinam Grass plant response rating,[11]; [20],55
same,"Plant response rating, Surinam Grass",[11]; [21],98
same,"Plant response rating, Surinam Grass",[11]; [22],100
same,Surinam Grass plant response rating,[11]; [23],90
same,"Crabgrass, Large plant response rating",[12]; [16],80
same,"Crabgrass, Large plant response rating",[12]; [17],95
same,"Plant response rating, Crabgrass, Large",[12]; [18],100
same,"Plant response rating, Crabgrass, Large",[12]; [19],100
same,"Crabgrass, Large plant response rating",[12]; [20],0
same,"Plant response rating, Crabgrass, Large",[12]; [21],85
same,"Plant response rating, Crabgrass, Large",[12]; [22],100
same,"Crabgrass, Large plant response rating",[12]; [23],35
same,Cocklebur plant response rating,[13]; [16],0
same,Cocklebur plant response rating,[13]; [17],0
same,"Plant response rating, Cocklebur",[13]; [18],0
same,"Plant response rating, Cocklebur",[13]; [19],0
same,Cocklebur plant response rating,[13]; [20],0
same,"Plant response rating, Cocklebur",[13]; [21],0
same,"Plant response rating, Cocklebur",[13]; [22],0
same,Cocklebur plant response rating,[13]; [23],0
same,"Nightshade, E. B. plant response rating","[14]; 8 g ai/ha, scale 0 to 100 (0 no effect, 100 complete control)",0
same,"Plant response rating, Nightshade, E. B.","[14]; 31 g ai/ha, scale 0 to 100 (0 no effect, 100 complete control)",0
same,"Plant response rating, Nightshade, E. B.","[14]; 62 g ai/ha, 0 to 100 scale, 0 no effect, 100 complete control",0
same,"Nightshade, E. B. plant response rating","[14]; 16 g ai/ha, scale 0 to 100",0
